Patent publication US6868343B1, “Interactions between substances and surfaces that are made up of amphiphilic molecules” (NIMBUS Biotechnologie GmbH, priority 1998, dated 2005)

Key:
[1] = Partition coefficient between solid-supported membrane C (DEPC) and aqueous compartment, UV/Vis at 304 nm; format: physicochemical; details: pH 7.4, tetracaine 25 μm, buffer A
Description: The process for determining lipid binding constants with the aid of solid, biocompatible surfaces can also be used for pharmaceuticals. […] For an analyzing the partition coefficient of this pharmaceutical between the lipid and water phases, as described in example 1, porous silicate structures are coated with a charge-neutral membrane of 99.97 mole % zwitterionic lecithin 1,2-dielaidoyl-sn-3-glycero-3-phosphocholine (DEPC) and 0.03 mole % fluorescence marker 1-hexadecanoyl-2-(-pyrenedecanoyl)-sn-glycero-3-phosphocholine (hereinafter called membrane C).
The active agent tetracaine to be analyzed is placed in double sample form in aqueous solution (buffer A) in a constant concentration of 25 μm and mixed with different quantities of membrane C (concentration range of the lipid 5*10^−5−2*10^−3 mole/l). […] The free active agent concentration in the supernatant material can be rapidly determined in the case of the UV-active compound tetracaine with the aid of UV/Vis spectroscopy (detection at 304 nm). Alternatively the remaining lipid-free supernatant materials can be analyzed using chromatographic methods (HPLC, gas chromatography, etc.). […]
The partition coefficient found for tetracaine between the solid-supported membrane C and the aqueous compartment at the physiologically relevant pH-value 7.4 is 1.4. The binding constants are calculated according to standard procedures.

[2] = Membrane-water distribution by HPLC on solid-supported egg lecithin bilayer (column A1); format: physicochemical; details: column A1, pH 7.4, 23° C., calculated from retention time via calibration curve; read-out: logDcal-PC, pH 7.4
Description: A natural mixture of egg lecithin and 0.03 mole % fluorescence marker 1-hexadecanoyl-2-(1-pyrenedecanoyl)-sn-glycero-3-phosphocholine is suspended in chloroform and the solvent completely removed in vacuo. The lipids are subsequently dispersed in the aqueous buffer (pH 7.4) and small, unilamellar vesicles are produced by ultrasonic treatment. By mixing with spherical, porous silicate structures (silicate gel with 10 μm sphere diameter and 400 nm pore size) at temperatures higher than the Tm of the lipids, the corresponding solid-supported lipid bilayer is obtained by the spontaneous fusion of the vesicles on the silicate surface. […]
For determining the dead time t0 in the selected system, 5 μl of a 5 mM potassium iodide solution is injected into buffer A. In the case of the HPLC column A1 in reproducible manner a t0 of 0.64 min is measured and for column A2 t0=0.58 min. […]
The quantities of compound to be injected are determined on the one hand by its adsorption tendency on the stationary phase and on the other by the detectability of the compound. As a rule most reference compounds can be detected using spectroscopic methods (here UV/V is spectroscopy at 210 nm). The measured retention times tR are directly correlated with the octanol/water partition coefficient using a prior art equation system. […]
In the present example logD cal-PC, pH 7.4 is determined.

partition coefficient between solid-supported membrane C and aqueous compartment [1]	SMILES	chromatographic logD [2]
1.4	CCCCNc1ccc(C(=O)OCCN(C)C)cc1 [tetracaine]	
	CC(=O)CC(c1ccccc1)c1c(O)c2ccccc2oc1=O (centres unmarked) [Warfarin, 3-(-acetonylbenzyl)-4-hydroxycoumarin]	1.1
